Reference: ChEMBL document CHEMBL5331094, “Identification of 2,4,5-trisubstituted-2,4-dihydro-3H-1,2,4-triazol-3-one-based small molecules as selective BRD9 binders” (Eur J Med Chem, 2023)

Key:
[1] = biological target: Transcription initiation factor TFIID subunit 1 (Homo sapiens) (UniProt P21675); experiment: Binding affinity of recombinant His-tagged TAF1 (unknown origin) to histone H4Ac (1 to 21 residues) K5/8/12/Ac-Biotin-OH assessed as residual binding at 10 uM incubated for 30 mins by alphascreen analysis relative to control
[2] = biological target: Bromodomain-containing protein 3 (Homo sapiens) (UniProt Q15059); experiment: Binding affinity of recombinant His-tagged BRD3-BD1 (unknown origin) to histone H4Ac (1 to 21 residues) K5/8/12/Ac-Biotin-OH assessed as residual binding at 10 uM incubated for 30 mins by alphascreen analysis relative to control
Caco-2 = experiment: Cytotoxicity against human Caco-2 cells assessed as cell viability measured after 24 hrs by MTT assay; format: functional, cell-based; conditions: Caco-2, 24 h
[3] = biological target: Bromodomain testis-specific protein (Homo sapiens) (UniProt Q58F21); experiment: Binding affinity of recombinant His-tagged BRDT-BD1 (unknown origin) to histone H4Ac (1 to 21 residues) K5/8/12/Ac-Biotin-OH assessed as residual binding at 10 uM incubated for 30 mins by alphascreen analysis relative to control
HaCaT = experiment: Cytotoxicity against human HaCaT cells assessed as cell viability measured after 24 hrs by MTT assay; format: functional, cell-based
[4] = Cytotoxicity against human erythrocytes assessed as cell viability measured after 24 hrs by MTT assay; format: toxicity, cell-based, Erythrocyte
[5] = biological target: Bromodomain-containing protein 4 (Homo sapiens) (UniProt O60885); experiment: Binding affinity of recombinant His-tagged BRD4-BD2 (unknown origin) to histone H4Ac (1 to 21 residues) K5/8/12/Ac-Biotin-OH assessed as residual binding at 10 uM incubated for 30 mins by alphascreen analysis relative to control
[6] = biological target: Bromodomain adjacent to zinc finger domain protein 2B (Homo sapiens) (UniProt Q9UIF8); experiment: Binding affinity of recombinant His-tagged BAZ2B (unknown origin) to histone H3 (1 to 21 residues) K9/14Ac-Biotin-OH assessed as residual binding at 10 uM incubated for 30 mins by alphascreen analysis relative to control
[7] = biological target: Bromodomain-containing protein 1 (Homo sapiens) (UniProt O95696); experiment: Binding affinity of recombinant His-tagged BRD1 (unknown origin) to histone H4Ac (1 to 21 residues) K5/8/12/Ac-Biotin-OH assessed as residual binding at 10 uM incubated for 30 mins by alphascreen analysis relative to control
[8] = biological target: Bromodomain-containing protein 7 (Homo sapiens, UniProt Q9NPI1); experiment: Inhibition of recombinant His-tagged […] (unknown origin) to histone H3 (1 to 30 residues) K4/18/23/27Ac incubated for 30 mins by alphascreen analysis
[9] = biological target: Bromodomain-containing protein 2 (Homo sapiens) (UniProt P25440); experiment: Binding affinity of recombinant His-tagged BRD2-BD2 (unknown origin) to histone H4Ac (1 to 21 residues) K5/8/12/Ac-Biotin-OH assessed as residual binding at 10 uM incubated for 30 mins by alphascreen analysis relative to control
[10] = biological target: Bromodomain and PHD finger-containing protein 3 (Homo sapiens) (UniProt Q9ULD4); experiment: Binding affinity of recombinant His-tagged BRPF-3 (unknown origin) to histone H4Ac (1 to 21 residues) K5/8/12/Ac-Biotin-OH assessed as residual binding at 10 uM incubated for 30 mins by alphascreen analysis relative to control
[11] = biological target: Nucleosome-remodeling factor subunit BPTF (Homo sapiens) (UniProt Q12830); experiment: Binding affinity of recombinant His-tagged BPTF (unknown origin) to histone H4Ac (1 to 21 residues) K5/8/12/Ac-Biotin-OH assessed as residual binding at 10 uM incubated for 30 mins by alphascreen analysis relative to control
MCF7 = experiment: Cytotoxicity against human MCF7 cells assessed as cell viability measured after 24 hrs by MTT assay; format: functional, cell-based; conditions: MCF7, 24 h
[12] = biological target: T1, Bromodomain-containing protein 9 (Homo sapiens, UniProt Q9H8M2); experiment: Inhibition of BRD9 (unknown origin) by alpha screen analysis
T1 sequence (Q9H8M2 whole entry): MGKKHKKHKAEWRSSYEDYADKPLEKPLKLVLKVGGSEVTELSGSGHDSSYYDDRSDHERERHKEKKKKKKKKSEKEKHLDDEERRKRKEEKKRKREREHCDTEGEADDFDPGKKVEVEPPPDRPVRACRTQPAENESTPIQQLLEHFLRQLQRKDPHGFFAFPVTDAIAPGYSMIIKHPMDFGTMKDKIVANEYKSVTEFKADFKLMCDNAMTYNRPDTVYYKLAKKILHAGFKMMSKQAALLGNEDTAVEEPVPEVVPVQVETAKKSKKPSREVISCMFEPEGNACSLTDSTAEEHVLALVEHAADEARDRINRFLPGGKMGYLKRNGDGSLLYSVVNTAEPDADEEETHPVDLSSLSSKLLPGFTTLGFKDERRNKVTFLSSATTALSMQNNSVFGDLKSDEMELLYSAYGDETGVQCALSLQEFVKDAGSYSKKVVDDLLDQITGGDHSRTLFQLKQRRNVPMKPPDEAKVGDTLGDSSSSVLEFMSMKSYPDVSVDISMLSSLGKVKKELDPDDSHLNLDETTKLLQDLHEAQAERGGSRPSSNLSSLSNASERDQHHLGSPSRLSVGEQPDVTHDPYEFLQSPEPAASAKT

[13] = biological target: CREB-binding protein (Homo sapiens) (UniProt Q92793); experiment: Binding affinity of recombinant His-tagged CREBBP (unknown origin) to histone H4Ac (1 to 21 residues) K5/8/12/Ac-Biotin-OH assessed as residual binding at 10 uM incubated for 30 mins by alphascreen analysis relative to control
A-375 = experiment: Cytotoxicity against human A-375 cells assessed as cell viability measured after 24 hrs by MTT assay; format: functional, cell-based; conditions: A-375, 24 h
[14] = biological target: T2, Bromodomain-containing protein 9 (Homo sapiens) (UniProt Q9H8M2); experiment: Binding affinity of GST-tagged BRD9 domain (unknown origin) to histone H4Ac (1 to 21 residues) assessed as residual binding at 10 uM by alphascreen analysis relative to control
T2 sequence (whole entry): T1 sequence (Q9H8M2 whole entry)

[15] = biological target: ATPase family AAA domain-containing protein 2 (Homo sapiens) (UniProt Q6PL18); experiment: Binding affinity of recombinant His-tagged ATAD2 (unknown origin) to histone H4Ac (1 to 21 residues) K5/8/12/Ac-Biotin-OH assessed as residual binding at 10 uM incubated for 30 mins by alphascreen analysis relative to control
[16] = biological target: Bromodomain-containing protein 7 (Homo sapiens) (UniProt Q9NPI1); experiment: Binding affinity of recombinant His-tagged […] (unknown origin) to histone H3 (1 to 30 residues) K4/18/23/27Ac assessed as residual binding at 10 uM incubated for 30 mins by alphascreen analysis relative to control
[17] = biological target: Chromatin remodeling regulator CECR2 (Homo sapiens) (UniProt Q9BXF3); experiment: Binding affinity of recombinant His-tagged CECR2 (unknown origin) to histone H4Ac (1 to 21 residues) K5/8/12/Ac-Biotin-OH assessed as residual binding at 10 uM incubated for 30 mins by alphascreen analysis relative to control
Jurkat = experiment: Cytotoxicity against human Jurkat cells assessed as cell viability measured after 24 hrs by MTT assay; format: functional, cell-based
[18] = biological target: Bromodomain-containing protein 4 (Homo sapiens) (UniProt O60885); experiment: Binding affinity of recombinant His-tagged BRD4-BD1 (unknown origin) to histone H4Ac (1 to 21 residues) K5/8/12/Ac-Biotin-OH assessed as residual binding at 10 uM incubated for 30 mins by alphascreen analysis relative to control
[19] = biological target: Bromodomain-containing protein 3 (Homo sapiens) (UniProt Q15059); experiment: Binding affinity of recombinant His-tagged BRD3-BD2 (unknown origin) to histone H4Ac (1 to 21 residues) K5/8/12/Ac-Biotin-OH assessed as residual binding at 10 uM incubated for 30 mins by alphascreen analysis relative to control
[20] = biological target: Bromodomain-containing protein 2 (Homo sapiens) (UniProt P25440); experiment: Binding affinity of recombinant His-tagged BRD2-BD1 (unknown origin) to histone H4Ac (1 to 21 residues) K5/8/12/Ac-Biotin-OH assessed as residual binding at 10 uM incubated for 30 mins by alphascreen analysis relative to control
[21] = biological target: SWI/SNF-related matrix-associated actin-dependent regulator of chromatin subfamily A member 4 (Homo sapiens) (UniProt P51532); experiment: Binding affinity of recombinant His-tagged SMARCA4 (unknown origin) to histone H3 (1 to 30 residues) K4/18/23/27Ac assessed as residual binding at 10 uM incubated for 30 mins by alphascreen analysis relative to control
Chain of SWI/SNF-related matrix-associated actin-dependent regulator of chromatin subfamily A member 4 (Homo sapiens) (P51532 whole entry, the tested form may be a part): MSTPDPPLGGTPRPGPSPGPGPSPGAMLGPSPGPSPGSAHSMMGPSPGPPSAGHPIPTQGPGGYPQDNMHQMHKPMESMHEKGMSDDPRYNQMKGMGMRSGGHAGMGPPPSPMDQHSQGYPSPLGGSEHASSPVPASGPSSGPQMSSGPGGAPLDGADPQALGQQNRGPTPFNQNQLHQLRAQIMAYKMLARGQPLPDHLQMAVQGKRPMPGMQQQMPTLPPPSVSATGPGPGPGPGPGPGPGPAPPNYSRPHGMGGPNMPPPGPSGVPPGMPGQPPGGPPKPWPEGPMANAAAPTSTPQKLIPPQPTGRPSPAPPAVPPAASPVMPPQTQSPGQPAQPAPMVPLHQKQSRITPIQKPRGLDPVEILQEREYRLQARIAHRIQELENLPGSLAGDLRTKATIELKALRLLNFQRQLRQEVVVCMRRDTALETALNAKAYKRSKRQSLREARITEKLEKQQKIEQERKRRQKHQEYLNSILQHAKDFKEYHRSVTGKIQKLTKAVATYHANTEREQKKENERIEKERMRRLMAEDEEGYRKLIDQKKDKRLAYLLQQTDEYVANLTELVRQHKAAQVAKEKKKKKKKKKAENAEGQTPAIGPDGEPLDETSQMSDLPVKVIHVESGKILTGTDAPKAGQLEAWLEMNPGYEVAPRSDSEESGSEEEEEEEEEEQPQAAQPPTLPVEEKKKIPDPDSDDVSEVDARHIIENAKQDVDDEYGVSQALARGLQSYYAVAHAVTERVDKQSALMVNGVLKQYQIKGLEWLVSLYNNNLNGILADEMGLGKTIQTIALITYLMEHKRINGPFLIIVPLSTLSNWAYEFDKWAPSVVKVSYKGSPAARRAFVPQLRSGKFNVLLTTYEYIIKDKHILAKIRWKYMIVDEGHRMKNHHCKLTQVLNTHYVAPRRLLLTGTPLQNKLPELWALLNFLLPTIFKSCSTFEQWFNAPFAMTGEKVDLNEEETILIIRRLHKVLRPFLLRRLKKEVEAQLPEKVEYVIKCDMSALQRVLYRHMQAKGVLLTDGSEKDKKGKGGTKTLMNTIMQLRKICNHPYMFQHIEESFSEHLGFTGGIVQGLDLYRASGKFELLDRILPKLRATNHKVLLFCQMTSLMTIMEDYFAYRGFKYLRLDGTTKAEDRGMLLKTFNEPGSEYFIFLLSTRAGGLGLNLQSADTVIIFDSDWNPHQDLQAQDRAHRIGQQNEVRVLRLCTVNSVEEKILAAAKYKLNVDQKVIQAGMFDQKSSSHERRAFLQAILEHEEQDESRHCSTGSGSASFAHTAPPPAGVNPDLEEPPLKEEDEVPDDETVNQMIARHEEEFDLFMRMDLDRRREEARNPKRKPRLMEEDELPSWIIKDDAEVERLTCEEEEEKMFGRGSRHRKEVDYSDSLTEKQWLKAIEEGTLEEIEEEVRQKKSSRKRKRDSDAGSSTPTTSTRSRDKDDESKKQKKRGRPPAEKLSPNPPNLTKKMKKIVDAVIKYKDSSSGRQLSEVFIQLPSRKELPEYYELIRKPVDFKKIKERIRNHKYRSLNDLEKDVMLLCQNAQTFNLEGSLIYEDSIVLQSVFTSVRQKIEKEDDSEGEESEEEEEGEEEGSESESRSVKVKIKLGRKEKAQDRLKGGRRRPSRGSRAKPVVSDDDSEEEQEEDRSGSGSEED

Chain of Bromodomain-containing protein 2 (Homo sapiens) (P25440 whole entry, looked up, the tested form may be a part): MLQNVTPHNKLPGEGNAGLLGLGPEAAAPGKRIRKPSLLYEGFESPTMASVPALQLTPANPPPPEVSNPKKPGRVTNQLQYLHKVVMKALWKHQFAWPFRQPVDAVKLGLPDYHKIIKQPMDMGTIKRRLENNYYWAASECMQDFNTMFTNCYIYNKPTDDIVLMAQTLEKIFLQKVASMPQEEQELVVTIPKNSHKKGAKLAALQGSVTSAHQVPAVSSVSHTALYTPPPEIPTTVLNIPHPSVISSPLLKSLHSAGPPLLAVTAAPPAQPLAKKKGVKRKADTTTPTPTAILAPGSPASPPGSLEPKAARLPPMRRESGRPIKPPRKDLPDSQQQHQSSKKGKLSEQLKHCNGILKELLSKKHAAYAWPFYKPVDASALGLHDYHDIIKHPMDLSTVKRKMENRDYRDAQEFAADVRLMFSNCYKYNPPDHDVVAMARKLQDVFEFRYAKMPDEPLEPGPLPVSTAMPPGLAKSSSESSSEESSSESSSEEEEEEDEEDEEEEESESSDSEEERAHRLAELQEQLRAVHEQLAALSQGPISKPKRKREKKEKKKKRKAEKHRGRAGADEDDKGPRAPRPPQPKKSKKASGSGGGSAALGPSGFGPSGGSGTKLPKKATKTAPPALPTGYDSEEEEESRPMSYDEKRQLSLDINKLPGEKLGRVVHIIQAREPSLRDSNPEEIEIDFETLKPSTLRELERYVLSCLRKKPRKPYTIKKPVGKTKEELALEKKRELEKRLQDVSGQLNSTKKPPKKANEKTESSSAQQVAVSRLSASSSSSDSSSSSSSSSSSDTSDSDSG
Chain of Bromodomain-containing protein 3 (Homo sapiens) (Q15059 2-726 limits assumed): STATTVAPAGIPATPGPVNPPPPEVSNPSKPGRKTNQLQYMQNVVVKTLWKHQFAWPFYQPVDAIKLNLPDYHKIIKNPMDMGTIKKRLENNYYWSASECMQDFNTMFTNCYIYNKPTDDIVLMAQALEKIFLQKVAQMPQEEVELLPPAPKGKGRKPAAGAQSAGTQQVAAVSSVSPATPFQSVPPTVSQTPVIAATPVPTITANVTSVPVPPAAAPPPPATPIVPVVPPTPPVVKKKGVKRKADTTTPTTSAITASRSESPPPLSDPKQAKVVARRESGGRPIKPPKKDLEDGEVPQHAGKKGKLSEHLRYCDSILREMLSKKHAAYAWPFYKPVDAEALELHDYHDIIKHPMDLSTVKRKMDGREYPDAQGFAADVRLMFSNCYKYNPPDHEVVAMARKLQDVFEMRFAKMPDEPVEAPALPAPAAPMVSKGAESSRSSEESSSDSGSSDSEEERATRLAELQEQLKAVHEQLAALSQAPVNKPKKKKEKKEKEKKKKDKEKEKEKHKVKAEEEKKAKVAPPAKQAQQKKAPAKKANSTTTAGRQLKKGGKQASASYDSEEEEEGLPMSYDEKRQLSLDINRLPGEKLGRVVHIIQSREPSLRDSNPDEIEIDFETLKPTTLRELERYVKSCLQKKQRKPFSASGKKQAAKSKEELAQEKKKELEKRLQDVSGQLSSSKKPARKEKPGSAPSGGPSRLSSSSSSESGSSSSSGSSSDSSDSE
Chain of Bromodomain-containing protein 7 (Homo sapiens) (Q9NPI1 whole entry, the tested form may be a part): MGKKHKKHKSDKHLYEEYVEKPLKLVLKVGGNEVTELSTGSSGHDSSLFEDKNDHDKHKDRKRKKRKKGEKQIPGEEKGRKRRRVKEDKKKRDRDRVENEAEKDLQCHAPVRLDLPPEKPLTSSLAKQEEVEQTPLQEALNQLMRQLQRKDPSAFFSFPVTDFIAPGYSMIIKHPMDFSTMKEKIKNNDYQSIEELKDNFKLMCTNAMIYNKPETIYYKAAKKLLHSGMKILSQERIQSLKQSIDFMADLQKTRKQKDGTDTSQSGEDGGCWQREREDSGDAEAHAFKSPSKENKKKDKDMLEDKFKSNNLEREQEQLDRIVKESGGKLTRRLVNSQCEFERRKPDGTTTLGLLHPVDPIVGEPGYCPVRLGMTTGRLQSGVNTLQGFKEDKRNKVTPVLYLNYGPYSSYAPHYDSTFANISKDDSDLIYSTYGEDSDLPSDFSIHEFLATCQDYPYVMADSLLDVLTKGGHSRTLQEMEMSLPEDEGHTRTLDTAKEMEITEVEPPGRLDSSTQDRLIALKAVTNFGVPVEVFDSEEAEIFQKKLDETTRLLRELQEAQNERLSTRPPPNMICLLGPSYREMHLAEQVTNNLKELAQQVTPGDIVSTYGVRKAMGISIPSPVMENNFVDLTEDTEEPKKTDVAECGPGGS
Chain of Bromodomain-containing protein 7 (Q9NPI1 whole entry, the tested form may be a part): as above
Chain of Bromodomain and PHD finger-containing protein 3 (Homo sapiens) (Q9ULD4 whole entry, the tested form may be a part): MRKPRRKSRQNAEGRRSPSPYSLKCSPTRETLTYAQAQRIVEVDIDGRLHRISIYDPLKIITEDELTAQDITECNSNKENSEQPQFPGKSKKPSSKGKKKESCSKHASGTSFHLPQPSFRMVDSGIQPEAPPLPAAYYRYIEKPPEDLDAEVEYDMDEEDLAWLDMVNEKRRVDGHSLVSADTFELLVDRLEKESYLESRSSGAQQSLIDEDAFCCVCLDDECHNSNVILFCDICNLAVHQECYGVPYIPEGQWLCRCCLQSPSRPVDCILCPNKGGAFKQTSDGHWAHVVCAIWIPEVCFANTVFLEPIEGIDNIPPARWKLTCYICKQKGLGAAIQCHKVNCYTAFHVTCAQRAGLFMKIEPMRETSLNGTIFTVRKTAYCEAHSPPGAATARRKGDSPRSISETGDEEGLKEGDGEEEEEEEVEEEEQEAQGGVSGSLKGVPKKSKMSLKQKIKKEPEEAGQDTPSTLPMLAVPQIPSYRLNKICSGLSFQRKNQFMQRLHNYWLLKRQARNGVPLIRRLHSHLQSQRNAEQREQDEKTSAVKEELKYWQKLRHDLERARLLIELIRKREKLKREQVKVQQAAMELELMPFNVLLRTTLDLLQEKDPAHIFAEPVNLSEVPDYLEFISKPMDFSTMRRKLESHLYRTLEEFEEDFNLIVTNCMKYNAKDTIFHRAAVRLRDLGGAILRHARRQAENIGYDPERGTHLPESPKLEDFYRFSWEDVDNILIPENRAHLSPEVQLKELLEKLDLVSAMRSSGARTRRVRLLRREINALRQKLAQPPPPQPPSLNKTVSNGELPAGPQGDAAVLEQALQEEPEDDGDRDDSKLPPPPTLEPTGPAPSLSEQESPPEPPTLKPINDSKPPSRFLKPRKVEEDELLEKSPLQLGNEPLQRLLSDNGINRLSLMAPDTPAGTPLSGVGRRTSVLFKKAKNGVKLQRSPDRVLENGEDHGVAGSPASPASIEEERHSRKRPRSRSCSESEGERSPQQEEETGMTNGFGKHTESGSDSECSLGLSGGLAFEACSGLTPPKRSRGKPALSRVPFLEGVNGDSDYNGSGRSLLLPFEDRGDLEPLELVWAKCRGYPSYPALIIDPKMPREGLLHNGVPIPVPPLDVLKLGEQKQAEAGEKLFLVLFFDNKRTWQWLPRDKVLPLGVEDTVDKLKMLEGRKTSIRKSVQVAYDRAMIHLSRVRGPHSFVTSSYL

SMILES: CCc1nn(C)c(=O)n1-c1ccc2c(c1)OCO2
- Activity [1]: 77.7%
- Activity [2]: 96.5%
- IC50 (Caco-2): 330 µM
- Activity [3]: > 100%
- IC50 (HaCaT): > 500 µM
- IC50 at 24 h [4]: > 500 µM
- Activity [5]: 88.6%
- Activity [6]: > 100%
- Activity [7]: 97.3%
- IC50 [8]: 71.4 µM
- Activity [9]: > 100%
- Activity [10]: 94.2%
- Activity [11]: 95.5%
- IC50 (MCF7): 500 µM
- IC50 [12]: 0.14 µM
- Activity [13]: 97.7%
- IC50 (A-375): 270 µM
- Activity [14]: 21.1%
- Activity [15]: > 100%
- Activity [16]: 75.8%
- Activity [17]: 92.6%
- IC50 (Jurkat): 145 µM
- Activity [18]: > 100%
- Activity [19]: > 100%
- Activity [20]: 98.9%
- Activity [21]: 96.5%
